In article PMC9031226, “Preclinical Therapeutic Assessment of a New Chemotherapeutics [Dichloro(4,4’-Bis(2,2,3,3-Tetrafluoropropoxy) Methyl)-2,2’-Bipryridine) Platinum] in an Orthotopic Patient-Derived Xenograft Model of Triple-Negative Breast Cancers” (Pharmaceutics, 2022):

Legend:
SK-OV-3 = assay: MTT cell viability assay on SK-OV-3; format: cell-based, human; conditions: for IC50: SK-OV-3, MTT assay, 48 h
Protocol: Human cancer cell lines, including MDA-MB-231, MCF-7, COLO205 and SK-OV-3, used in this study were purchased from American Type Culture Collection (ATCC, Manassas, VA, USA). All cell cultures were maintained in a 5% CO2-containing incubator at 37 °C. Triple-negative breast cancer cell line MDA-MB-231 and estrogen receptor-positive breast cancer cells MCF-7 were cultured in Dulbecco’s Modified Eagle Medium/Nutrient Mixture F-12 medium (DMEM/F12, Thermo Fisher Scientific Inc., Waltham, MA, USA) supplemented with 1% HyClone Penicillin-Streptomycin 100X solution (Cytiva, Marlborough, MA, USA) and 10% (v/v) fetal bovine serum (Thermo Fisher Scientific Inc., Waltham, MA, USA). COLO205 colon cancer cells and SK-OV-3 ovarian cancer cells were cultured in Roswell Park Memorial Institute (RPMI) 1640 medium (Thermo Fisher Scientific Inc., Waltham, MA, USA) containing the same supplements as described above.
Cell viability was evaluated using MTT assay. […] A viable cell count was determined by adding MTT reagent (3-(4,5-Dimethyl-2-thiazolyl)-2,5-diphenyl-2H-tetrazolium bromide (MTT; SERVA, Heidelberg, Germany) at a concentration of 5 mg/mL in PBS followed by measurement of the absorbance at 570 nm for each well detected by μQuant™ universal microplate spectrophotometer (BioTek, Winowski, VT, USA). The assessment procedures were followed under the manufacturer’s instructions. The final results were represented as mean values in the same experimental group detected by a microplate reader.

MDA-MB-231 cells [1] = assay: Apoptosis detection (annexin V/PI, flow cytometry); format: cell-based, human; conditions: MDA-MB-231, 15 h
Protocol: In total, 3 × 10^5 MDA-MB-231 cells were first plated and cultured in a 6-well plate for 24 h and then exposed to medium, TFBPC- or CDDP-containing medium, and incubated in the dark for another 15 h, followed by apoptotic assessment using FITC-annexin V (AV) and propidium iodide (PI) double staining cell solution (Thermo Fisher Scientific Inc., Waltham, MA, USA) for 30 min. To assess the AV-Phosphatidylserine (excitation/emission maxima of 490/525 nm) and PI-DNA (excitation/emission maxima of 535/617 nm) binding, fluorescence intensity was analyzed and recorded using flow cytometer. Scatters in a two-parameter dot plot were gated into four quadrants. Proportions in the lower right (LR) and upper right (UR) quadrants were represented as the early stage and late stage in apoptotic process.

[2] = system: patient-derived TNBC tumors; assay: Orthotopic patient-derived xenograft (PDX) model, tumor growth; format: in vivo; conditions: NSG mice
Description: The procedures for the establishment of breast cancer-bearing xenograft models were modified from previous publications and approved by the Taipei Medical University (TMU) Institutional Animal Care and Use Committee (IACUC No. LAC- 2021-0546) and the Joint Institutional Review Board of Taipei Medical University (N201812005). Overall, 4- to 6-week-old NOD.Cg-PrkdcscidIl2rgtm1Wjl/SzJ (NSG) female mice purchased from BioLASCO Taiwan Co., Ltd. (Taipei, Taiwan) were housed in specific pathogen-free rooms with ad libitum feeding and 12 h light–dark cycle. Patient-derived TNBC tumors were microscopically considered for a hypervascular background and frequent mitosis features, and triple-negative results for estrogen receptor, progesterone receptor and human epidermal growth factor receptor 2 (HER2). After a week of acclimatization, patient-derived TNBC tumors dissected into 3 × 3 × 3 mm^3 were implanted using puncture needle in fat pads between the third and fourth mammary glands for each mouse.
Tumor growth curves were generated by measuring tumor diameters and then calculating based on the same equation described above. Finally, the mice were sacrificed on day 23 after the first dose of treatments. Plasma, tumors and major organs (heart, liver, kidney, spleen and lung) were collected for toxicity assessment and metastasis evaluation.

HCT-15 = assay: MTT cell viability assay on HCT-15 (supplement); format: cell-based; conditions: 20 to 80 μM, 24 or 48 h, supplementary figure
Protocol: Figure S11. TFBPC and glycyrrhizic acid micelles (GAM)-encapsulated TFBPC […]
NSG mice (N = 16) with implantation of MDA-MB-231 cells on the left flank were intraperitoneally administrated with PBS (5 mL/kg), TFBPC (5 mg/kg) or glycyrrhizic acid micelles (GAM)-encapsulated TFBPC (5 mg/kg) once per week and four times total in the whole course of treatment. Tumor volume of each animal was measured by caliper for monitoring its tumor growth and then sacrificed 49 days after the first dose of treatment. Mean ± SD. **** p < 0.0001. […]
colorectal cancers. Cisplatin and three platinum-based analogues, including (4, 4-3F) PtCl2 (A), TFBPC (B) and (4, 4-5F) PtCl2 (C), were assessed for cell viability using MTT assay. MDA-MB-231 breast cancers cells (D), COLO205 (E) and HCT-15 (F) colorectal cancer cells were given various concentrations of cisplatin or analogues ranging from 20 to 80 μM for 24 or 48 h. Results were shown in mean ± SD and statistically analyzed by one-way ANOVA and Tukey’s post hoc test. * p < 0.05, ** p < 0.01, *** p < 0.001, **** p < 0.0001. […]

MDA-MB-231 cells [3] = assay: Reactive oxygen species detection (DCF-DA, flow cytometry); format: cell-based, human; conditions: MDA-MB-231, 8 h
Protocol: DCF-DA is highly fluorescent and can label ROS for quantitative assessment using flow cytometer with excitation/emission at 485 nm/535 nm. To harvest and collect adherent and suspended cells, we first collected suspended cells from supernatant by centrifuging at 3000 rpm for 5 min at 4 °C and then adding trypsin to detach these adherent cells in the 6-well plate, followed by removing suspended cells via centrifugation. Both cell pellets after centrifugation were collected and re-suspended in PBS for subsequent quantitative analysis of ROS productions from cells treated either with CDDP or TFBPC using flow cytometer by gating the positive area in the histogram.

[4] = molecular target: bovine serum albumin (BSA) (Bos taurus, UniProt P02769); assay: UV-Vis spectrum of BSA-drug complex; format: binding; conditions: 250 μM BSA in PBS pH 7.4, 20-640 μM
Sequence of bovine serum albumin (BSA) (P02769 25-607): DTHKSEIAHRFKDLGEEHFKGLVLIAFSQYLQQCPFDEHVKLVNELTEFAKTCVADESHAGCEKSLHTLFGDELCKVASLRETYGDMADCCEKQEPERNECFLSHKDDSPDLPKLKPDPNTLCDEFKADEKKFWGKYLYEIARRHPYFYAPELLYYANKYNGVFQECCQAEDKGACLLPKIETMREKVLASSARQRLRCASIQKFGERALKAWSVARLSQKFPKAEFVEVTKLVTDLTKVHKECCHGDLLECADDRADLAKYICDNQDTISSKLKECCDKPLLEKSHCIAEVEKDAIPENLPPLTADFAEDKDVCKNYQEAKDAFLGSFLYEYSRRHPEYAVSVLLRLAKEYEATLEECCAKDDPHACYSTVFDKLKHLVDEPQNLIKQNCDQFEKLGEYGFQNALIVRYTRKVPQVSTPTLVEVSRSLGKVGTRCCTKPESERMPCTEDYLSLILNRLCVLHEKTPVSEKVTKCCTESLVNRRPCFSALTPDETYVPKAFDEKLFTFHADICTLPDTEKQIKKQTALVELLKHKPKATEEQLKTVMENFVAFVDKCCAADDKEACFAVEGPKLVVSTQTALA
Description: Absorption between the wavelengths of 220 nm and 500 nm was detected by measuring absorbance every 2 nm via Thermo Varioskan Flash microplate reader (Thermo Fisher Scientific Inc., Waltham, MA, USA). The maximal absorbance of BSA at 278 nm was marked to highlight the spectrum in pure BSA without chemical intercalation.

SMILES	IC50 (SK-OV-3)	induction of apoptosis (annexin V) (MDA-MB-231 cells [1])	average tumor volume vs. control ([2]; 2.11 or 5 mg/kg i.v. weekly x4)	reduction in cell viability (SK-OV-3; SK-OV-3, 0.625 μM)	reduction in cell viability (SK-OV-3; SK-OV-3, 1.23 μM)	reduction in cell viability (SK-OV-3; SK-OV-3, 2.5 μM)	cell viability of HCT-15 cells (HCT-15)	ROS production (MDA-MB-231 cells [3])	average tumor volume and weight compared among groups ([2]; 5 mg/kg i.v. weekly x4, day 23)	UV absorbance of BSA at 278 nm vs. concentration [4]
N.N.[Cl][Pt][Cl] [CDDP, Cis-diamineplatinum(II) dichloride]	41 µM	failed to induce MDA-MB-231 cells to undergo apoptosis	no statistical difference							
FC(F)C(F)(F)COCc1ccnc(-c2cc(COCC(F)(F)C(F)F)ccn2)c1.[Cl][Pt][Cl] [TFBPC]	1.92 µM	caused cells to undergo an apoptotic fate		29%	54%	78%	statistically reduced cell viability	apparent increase in ROS production	smallest size in volume	positively correlated
